The record followed here is US20250163057A1, “DCN-1 MODULATING COMPOUNDS AND METHODS OF USE THEREOF” (Cellarity, Inc., priority 2023, published 2025).

Assay [1] relates to fetal hemoglobin gene HBG1. The assay is described as follows: HBG1 Nanostring Assay in CD34+ HSPC erythroid differentiation culture. As to conditions: for EC50: HBG1 induction, Day10 of erythroid differentiation; for Nanostring Ymax obs (%): relative to a control compound (C1). It is filed as cell-based, human. The procedure, abridged: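 HBG1 counts came from direct nCounter hybridization (67° C, 22 h) of day-10 lysates, normalized to ERCC positive controls and a housekeeping gene, giving EC50 and Ymax versus a reference compound. Compounds in 0.1% DMSO were present from day −2 while cells underwent EPO/SCF/IL-3 erythroid differentiation, with IL-3 dropped at day 7, at 37° C.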

For a further assay, the target named is DCN1 protein (Homo sapiens (Human), UniProt Q96GG9). The assay is described as follows: Intact Protein MS Analysis with the RapidFire-TOF System (covalent adduct formation). It is filed as binding. The following applies: MS Emax; 400 nM DCN1, 3 hours at room temperature. The gist of the method:
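Tag-cleaved human DCN1 (400 nM) expressed in E. coli, in 25 mM Tris-HCl, 200 mM NaCl, 1 mM DTT, was incubated with 11 compound concentrations for 3 h at room temperature and quenched with 0.2% formic acid. Intact-protein Q-TOF MS with deconvolution detected the compound adduct mass.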

Assay [2] deals with Cullin-3 (CUL3) neddylation. Briefly: AlphaLISA assay for Cullin-3 (CUL3) neddylation in TF 1 cells. It is filed as cell-based. As to conditions: 3 hours treatment. The gist of the method: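 Neddylated CUL3 was quantified by AlphaLISA in lysates of TF 1 cells exposed for 3 h to test compound in IMDM without supplements. Percent inhibition set between vehicle and 1 μM DI-1548 positive control; IC50 derived by Hill-equation fitting of dose-response curves.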

Assay [3] has as its target DCN1 (DCUND1) protein PONY domain (Homo sapiens (Human), UniProt Q96GG9). Briefly: TR-FRET assay, DCN1 binding with FAM-labeled probe. The procedure, abridged:
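First, the E. coli-derived PONY domain was biotinylated and paired with streptavidin Tb cryptate. Compounds in 0.1% DMSO were then added to DCN1 and FAM-probe (5 nM/20 nM, or 0.31 nM/900 nM total with 800 nM unlabelled) in TritonX, 200 mM NaCl buffer. Finally, TR-FRET ratios were recorded at 1, 5 and 24 hrs.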

The mark [4] stands for this setting: 24 hr after treatment with compound, read-out: TR FRET IC50 24 hr.

Where two headings read alike, the source gives them in different places.

Chain of DCN1 protein (Q96GG9 whole entry): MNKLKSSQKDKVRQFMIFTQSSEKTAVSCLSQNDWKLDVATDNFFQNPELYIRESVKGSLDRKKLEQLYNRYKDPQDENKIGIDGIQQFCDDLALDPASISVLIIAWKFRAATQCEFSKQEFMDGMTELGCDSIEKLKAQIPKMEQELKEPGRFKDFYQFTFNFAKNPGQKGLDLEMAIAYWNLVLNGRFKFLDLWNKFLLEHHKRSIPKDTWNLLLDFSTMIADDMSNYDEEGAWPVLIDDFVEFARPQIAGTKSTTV
Chain of DCN1 (DCUND1) protein PONY domain (Q96GG9 60-248): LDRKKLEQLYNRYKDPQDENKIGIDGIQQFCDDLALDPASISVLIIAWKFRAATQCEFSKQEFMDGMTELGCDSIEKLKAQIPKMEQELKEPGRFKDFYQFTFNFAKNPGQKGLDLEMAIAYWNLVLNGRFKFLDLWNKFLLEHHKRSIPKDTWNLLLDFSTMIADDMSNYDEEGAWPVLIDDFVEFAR

`C=CC(=O)N[C@@H](C)c1nn(-c2ccccc2)c2c1[C@H](c1ccc(F)cc1)[C@H](NC(=O)c1cccc(C(F)(F)F)c1)C(=O)N2CC` (mixture of isomers) [Compound I-143] displayed a concentration for a half-maximal effect (EC50) in assay [1] (Homo sapiens, 240 h) above 1000 nM. For the same compound, the “Nanostring Ymax obs (%)” value in assay [1] is “+ (Nanostring Ymax greater than or equal to 0.0 and less than or equal to 50.0)”. Besides, on DCN1 protein, the “% Adduct Formation” value is “+ (MS Emax % adduct formation greater than or equal to 0.0 and less than or equal to 30.0)”. Further, the IC50 in assay [2] (Homo sapiens, TF-1, 3 h) is above 1000 nM; in assay [3] (setting [4]), 200 to 1000 nM; in assay [3] (TR FRET IC50 1 hr (nM), 1 hr after treatment with compound) it was 200 to 1000 nM.
On to `CCN1C(=O)[C@@H](NC(=O)c2cccc(C(F)(F)F)c2)[C@@H](c2ccc(F)cc2)c2c(CN(C)C(=O)/C=C/C(=O)OC)nn(-c3ccccc3)c21` (racemic) [Compound I-107, methyl (˜{E})-4-[[(4˜{R},5˜{S})-7-ethyl-4-(4-fluorophenyl)-6-oxo-1-phenyl-5-[[3-(trifluoromethyl)benzoyl]amino]-4,5-dihydropyrazolo[3,4-b]pyridine-3-yl]methyl-methyl-amino]-4-oxo-but-2-enoate], for which the EC50 in assay [1] (Homo sapiens, 240 h) is at most 100 nM. For the same compound, the “Nanostring Ymax obs (%)” value in assay [1] is given as “+++ (Nanostring Ymax greater than 100.0)”. For the same compound, the “% Adduct Formation” value on DCN1 protein is “+++ (MS Emax % adduct formation greater than 80.0 and less than or equal to 100.0)”. Besides, the half-inhibitory concentration (IC50) is at most 100 nM in assay [2] (Homo sapiens, TF-1, 3 h); at most 200 nM in assay [3] (setting [4]); at most 200 nM in assay [3] (read-out: TR FRET IC50 1 hr, 1 hr after treatment with compound).
As to `CCN1C(=O)[C@@H](NC(=O)c2cccc(C(F)(F)F)c2)[C@@H](c2ccc(F)cc2)c2c([C@@H](C)NC#N)nn(-c3ccccc3)c21` (mixture of isomers) [Compound I-167], in assay [1], the EC50 lay in the range of 100 to 1000 nM; the “Nanostring Ymax obs (%)” value is “++ (Nanostring Ymax greater than 50.0 and less than or equal to 100.0)”. The “% Adduct Formation” value on DCN1 protein was “+++ (MS Emax % adduct formation greater than 80.0 and less than or equal to 100.0)”. Moreover, the concentration for half-maximal inhibition (IC50) in assay [2] was at most 100 nM.
Turning to `CCN1C(=O)[C@@H](NC(=O)c2cccc(C(F)(F)F)c2)[C@@H](c2ccc(F)cc2)c2c(CNC(=O)[C@H](C)Cl)nn(-c3ccccc3)c21` (racemic) [Compound I-179], the EC50 in assay [1] (Homo sapiens, 240 h) was above 1000 nM. Besides, the “Nanostring Ymax obs (%)” value in assay [1] was “+ (Nanostring Ymax greater than or equal to 0.0 and less than or equal to 50.0)”. Moreover, the “% Adduct Formation” value on DCN1 protein is “+ (MS Emax % adduct formation greater than or equal to 0.0 and less than or equal to 30.0)”. Besides, in assay [2] (Homo sapiens, TF-1, 3 h), the IC50 fell in the range of 100 to 1000 nM.
Turning to `CCN1C(=O)[C@@H](NC(=O)c2cccc(C(F)(F)F)c2)[C@@H](c2ccc(F)cc2)c2c(CNC(=O)C3=CCC3)nn(-c3ccccc3)c21` (racemic) [Compound I-204], the EC50 in assay [1] (Homo sapiens, 240 h) was above 1000 nM. The “Nanostring Ymax obs (%)” value in assay [1] was “+ (Nanostring Ymax greater than or equal to 0.0 and less than or equal to 50.0)”. Also, the “% Adduct Formation” value at DCN1 protein was “+ (MS Emax % adduct formation greater than or equal to 0.0 and less than or equal to 30.0)”. The compound further showed an IC50 in assay [2] (Homo sapiens, TF-1, 3 h) of 100 to 1000 nM.
As for `C=C(CN1CCOCC1)C(=O)N(C)Cc1nn(-c2ccccc2)c2c1[C@H](c1ccc(F)cc1)[C@H](NC(=O)c1cccc(C(F)(F)F)c1)C(=O)N2CC` (racemic) [Compound I-185], in assay [1], the “Nanostring Ymax obs (%)” value is “++ (Nanostring Ymax greater than 50.0 and less than or equal to 100.0)”. The “% Adduct Formation” value on DCN1 protein is “+ (MS Emax % adduct formation greater than or equal to 0.0 and less than or equal to 30.0)”. In assay [2] (Homo sapiens, TF-1, 3 h), the half-inhibitory concentration (IC50) lay within 100 to 1000 nM.
`CCN1C(=O)[C@@H](NC(=O)c2cccc(C(F)(F)F)c2)[C@@H](c2ccc(F)cc2)c2c(CNC(=O)/C(C#N)=C/C(C)C)nn(-c3ccccc3)c21` (racemic) [Compound I-241]: the “Nanostring Ymax obs (%)” value in assay [1] is “+ (Nanostring Ymax greater than or equal to 0.0 and less than or equal to 50.0)”. Also, the “% Adduct Formation” value on DCN1 protein is “+++ (MS Emax % adduct formation greater than 80.0 and less than or equal to 100.0)”. The half-maximal inhibitory concentration (IC50) in assay [2] (Homo sapiens, TF-1, 3 h) is at most 100 nM.
In the case of `CC#CC(=O)NCc1nn(-c2ccccc2)c2c1[C@H](c1ccc(F)cc1)[C@H](NC(=O)c1cccc(C(F)(F)F)c1)C(=O)N2CC` (racemic) [Compound I-184], the “Nanostring Ymax obs (%)” value in assay [1] was “++ (Nanostring Ymax greater than 50.0 and less than or equal to 100.0)”. In addition, at DCN1 protein, the “% Adduct Formation” value was “+ (MS Emax % adduct formation greater than or equal to 0.0 and less than or equal to 30.0)”. In addition, in assay [2] (Homo sapiens, TF-1, 3 h), the IC50 fell in the range of 100 to 1000 nM.
In assay [1] (Homo sapiens, 240 h), `CCN1C(=O)[C@@H](NC(=O)c2cccc(C(F)(F)F)c2)[C@@H](c2ccc(F)cc2)c2c(NC(=O)[C@@H](C)Br)nn(-c3ccccc3)c21` (mixture of isomers) [Compound I-177] showed a concentration giving a half-maximal response (EC50) above 1000 nM. Moreover, the “Nanostring Ymax obs (%)” value in assay [1] is “++ (Nanostring Ymax greater than 50.0 and less than or equal to 100.0)”. The “% Adduct Formation” value at DCN1 protein is “+ (MS Emax % adduct formation greater than or equal to 0.0 and less than or equal to 30.0)”. This compound returned a half-maximal inhibitory concentration (IC50) in assay [2] (Homo sapiens, TF-1, 3 h) of 100 to 1000 nM.
In the case of `C=C(C)C(=O)NCc1nn(-c2ccccc2)c2c1[C@H](c1ccc(F)cc1)[C@H](NC(=O)c1cccc(C(F)(F)F)c1)C(=O)N2CC` (racemic) [Compound I-206], the EC50 in assay [1] (Homo sapiens, 240 h) is above 1000 nM. Further, the “Nanostring Ymax obs (%)” value in assay [1] was “+ (Nanostring Ymax greater than or equal to 0.0 and less than or equal to 50.0)”. Further, the “% Adduct Formation” value on DCN1 protein was “+ (MS Emax % adduct formation greater than or equal to 0.0 and less than or equal to 30.0)”. The compound further came in with a concentration for half-maximal inhibition (IC50) in assay [2] (Homo sapiens, TF-1, 3 h) of 100 to 1000 nM.
Turning to `CCN1C(=O)[C@@H](NC(=O)c2cccc(C(F)(F)F)c2)[C@@H](c2ccc(F)cc2)c2c(CNC(=O)[C@H](C)Br)nn(-c3ccccc3)c21` (racemic) [Compound I-180], the half-maximal effective concentration (EC50) in assay [1] (Homo sapiens, 240 h) is above 1000 nM. Also, the “Nanostring Ymax obs (%)” value in assay [1] is “+ (Nanostring Ymax greater than or equal to 0.0 and less than or equal to 50.0)”. The “% Adduct Formation” value on DCN1 protein is “+ (MS Emax % adduct formation greater than or equal to 0.0 and less than or equal to 30.0)”. Moreover, the concentration for half-maximal inhibition (IC50) in assay [2] (Homo sapiens, TF-1, 3 h) was 100 to 1000 nM.
Turning to `CCN1C(=O)[C@@H](NC(=O)c2cccc(C(F)(F)F)c2)[C@@H](c2ccc(F)cc2)c2c(CN(C)C(=O)CCl)nn(-c3ccccc3)c21` (racemic) [Compound I-227], the EC50 in assay [1] (Homo sapiens, 240 h) lay in the range of 100 to 1000 nM. Also, in assay [1], the “Nanostring Ymax obs (%)” value is “++ (Nanostring Ymax greater than 50.0 and less than or equal to 100.0)”. Moreover, the “% Adduct Formation” value at DCN1 protein is “++ (MS Emax % adduct formation greater than 30.0 and less than or equal to 80.0)”. This compound came in with an IC50 in assay [2] (Homo sapiens, TF-1, 3 h) of at most 100 nM.
In turn, `CCN1C(=O)[C@@H](NC(=O)c2cccc(C(F)(F)F)c2)[C@@H](c2ccc(F)cc2)c2c(CNC(=O)/C(C#N)=C/C(C)(C)C)nn(-c3ccccc3)c21` (racemic) [Compound I-173] returned a concentration for a half-maximal effect (EC50) in assay [1] (Homo sapiens, 240 h) of 100 to 1000 nM. In addition, the “Nanostring Ymax obs (%)” value in assay [1] was “++ (Nanostring Ymax greater than 50.0 and less than or equal to 100.0)”. Further, the “% Adduct Formation” value on DCN1 protein is “+++ (MS Emax % adduct formation greater than 80.0 and less than or equal to 100.0)”. The compound further showed a 50% inhibitory concentration (IC50) in assay [2] (Homo sapiens, TF-1, 3 h) of at most 100 nM.
In assay [1] (Homo sapiens, 240 h), `C#CC(=O)N(C)Cc1nn(-c2ccccc2)c2c1[C@H](c1ccc(F)cc1)[C@H](NC(=O)c1cccc(C(F)(F)F)c1)C(=O)N2CC` (racemic) [Compound I-201] yielded an EC50 of at most 100 nM. In addition, in assay [1], the “Nanostring Ymax obs (%)” value was “+ (Nanostring Ymax greater than or equal to 0.0 and less than or equal to 50.0)”. Besides, on DCN1 protein, the “% Adduct Formation” value is “+++ (MS Emax % adduct formation greater than 80.0 and less than or equal to 100.0)”. This compound yielded an IC50 in assay [2] (Homo sapiens, TF-1, 3 h) of 100 to 1000 nM.
Consider `CCN1C(=O)[C@@H](NC(=O)c2cccc(C(F)(F)F)c2)[C@@H](c2ccc(F)cc2)c2c(CNC(=O)/C=C/CN3CCC3)nn(-c3ccccc3)c21` (racemic) [Compound I-203], for which the EC50 in assay [1] (Homo sapiens, 240 h) lay within 100 to 1000 nM. Besides, the “Nanostring Ymax obs (%)” value in assay [1] is “+ (Nanostring Ymax greater than or equal to 0.0 and less than or equal to 50.0)”. In addition, the “% Adduct Formation” value at DCN1 protein was “+ (MS Emax % adduct formation greater than or equal to 0.0 and less than or equal to 30.0)”. Further, in assay [2] (Homo sapiens, TF-1, 3 h), the IC50 lay in the range of 100 to 1000 nM.
The compound `CCN1C(=O)[C@@H](NC(=O)c2cccc(C(F)(F)F)c2)[C@@H](c2ccc(F)cc2)c2c([C@@H](C)NC(=O)CCl)nn(-c3ccccc3)c21` (mixture of isomers) [Compound I-190] had an EC50 in assay [1] (Homo sapiens, 240 h) above 1000 nM. In addition, the “Nanostring Ymax obs (%)” value in assay [1] was “++ (Nanostring Ymax greater than 50.0 and less than or equal to 100.0)”. For the same compound, the “% Adduct Formation” value on DCN1 protein is “+ (MS Emax % adduct formation greater than or equal to 0.0 and less than or equal to 30.0)”. This compound also gave an IC50 in assay [2] (Homo sapiens, TF-1, 3 h) above 1000 nM.
